Paper PMC7657476, “An improved whole life cycle culture protocol for the hydrozoan genetic model Clytia hemisphaerica” (Biology Open, 2020)
Square brackets hold non-standard residues; d marks the D form. Ends that are not written are not given here. pGlu = O=C1CC[C@@H](C(=O)O)N1

Tested on: Clytia hemisphaerica planula larvae
Assay: Metamorphosis (settlement) induction of planula larvae by synthetic GLW-amide neuropeptides
Assay type: in vivo
Details: for Metamorphosis efficiency, Average: peptide concentration not given
Method: (1) Culture planula larvae in MFSW containing penicillin and streptomycin. (2) Wash the surface of large glass slides (75 mm×50 mm) with warm tap water (40–50°C) and dry. Place them in 100 mm diameter petri dishes. (3) Dilute GLW-amide peptide stock solution (1–5 mM in distilled water, stored at −20°C) just prior to use in MFSW (4 ml/large slide). Recommended final concentration for GLW-amide-6 is 0.5 µM. (4) Using a plastic transfer pipette, carefully pour 0.1 ml/cm^2 or more peptide-containing sea water over the glass slide (4 ml for large glass slides, Fig. S1F). (5) Transfer 2.5–3-day-old planulae using a glass pipette. Disperse them as the settlement starts quickly. (6) Cover the dish with a lid to minimize the water evaporation and keep the dish undisturbed. (7) Planula will be firmly settled in several hours after peptide treatment. Transfer slides to polyp tanks, not later than 16 h after induction. (8) Start to feed smashed Artemia once the primary polyps have extended tentacles and open mouths. (9) Once the colony contains multiple gastrozooids, it can be fed normally with live Artemia nauplii.
Metamorphosis of planula larvae was induced by transferring them onto glass slides covered with at least 0.1 ml/cm^2 of sea water containing synthetic neuropeptides (Fig. 2E). A selection of synthetic amidated peptides derived from the neuropeptide precursors Che-PP2 and Che-PP11 ([Takeda et al., 2018]) were tested as metamorphosis inducers (Table 2) on 3-day-old planula larvae obtained by crossing Z13 (male) and Z11 (female) strains. Planula attach firmly onto the slide within a few hours (Fig. 1C, left). Metamorphosis efficiency was measured by successful settlement on the slide at 12 h, as the timing of stalk extension is variable, from several hours to days.

Substance: GNPPGLW-NH2 [GLW-amide-2, synthetic GLW-amide neuropeptide from Clytia transcriptome (precursor PP11), previously used to trigger metamorphosis]
- Planula settlement efficiency (previous conditions, 1 µM peptide, variable (Fig. 7)): ≥ 40%

Substance: [pGlu]QQAPKGLW-NH2 [GLW-amide-6, synthetic GLW-amide neuropeptide derived from precursor Che-PP11]
- Planula settlement on the glass slide (0.3 µM peptide, settlement scored at 12 h, 5 repeats of 20 planulae (Fig. 7)): virtually all
- Lowest concentration active in inducing metamorphosis (3-day-old planulae (Z13 x Z11) on glass slide in sea water containing peptide, settlement scored at 12 h, 5 repeats of 20 planulae (Fig. 7)): 0.3 µM
- Planula settlement efficiency (newly designed peptide, concentration not printed at this place (Fig. 7)): ~100%
- Metamorphosis efficiency, Average (substrate agarose (2%), sample size 96–98, 4 repeats): 96.5%
- Metamorphosis efficiency, Average (substrate glass, sample size 90–99, 5 repeats): 98.6%
- Metamorphosis efficiency, Average (substrate plastic (polypropyrene), sample size 90–100, 5 repeats): 99.9%
